# Columns and labels:
# C6 (rat glioma) = test: in vitro; assay type: cell-based
# Text: (§1) For selected compounds, 6a–6f, we performed a determination of the cytotoxicity in a wider variety of cancer and non-cancerous cell lines (see Table S2, Supplementary Materials) in order to learn the characteristic features of selectivity or the similarity of biological properties.
# (§2) The HT-1080 (human connective tissue fibrosarcoma, ATCC® CCL-121™), MH-22A (mouse hepatocarcinoma, ECACC Cat. No. 96121721), A-549 (human lung carcinoma, ATCC® CCL-185™), NIH3T3 (Swiss Albino mouse embryo fibroblast, ECACC Cat. No. 93061524), Hek293 (human embryonic kidney, ATCC® CRL-1573™), BHK-21 (Syrian hamster kidney, ATCC® CCL-10™), A-431 (human epidermoid carcinoma, ATCC® CRL-1555™), Saos-2 (human osteosarcoma, ATCC® HTB-85™), HeLa (human epitheloid cervix carcinoma, ATCC® CCL-2™), U937 (human myeloid leukaemia, ATCC® CRL-1593.2™), C6 (rat glioma, ATCC® CCL-107™), and B16-F10 (murine melanoma, ATCC® CRL-6475™) cell lines were obtained from the American Type Culture Collection (ATCC) and European Collection of Authenticated Cell Cultures (ECACC).
# (§3) HT-1080, MH-22A, A-549, NIH3T3, BHK-21, A-431, HeLa, and B16-F10 cells were cultured in Dulbecco’s Modified Eagle’s Medium (DMEM) with 2 mM glutamine and 10% foetal bovine serum (FBS). Hek293 cells were cultured in Eagle’s Minimum Essential Medium with 10% foetal bovine serum. U937 cells were cultured in RPMI-1640 Medium with 2 mM glutamine and 10% foetal bovine serum. C6 cells were cultured in Ham’s F12 Medium with 2 mM glutamine and 10% foetal bovine serum. Saos-2 cells were cultured in McCoy’s 5a Medium with 2 mM glutamine and 10% foetal bovine serum. The cells were incubated at 37 °C with 5% CO2, 95% air, and complete humidity. Once ~90% confluence was reached, they were detached using 0.05% trypsin/EDTA and counted. The cells were plated at optimally determined densities for the logarithmic phase of growth. These cells were then suspended at a concentration of 4000 cells/well for HT-1080, MH-22A, A-549, NIH3T3, BHK-21, A-431, HeLa, B16-F10, Hek293, and Saos-2 cells and a concentration of 9000 cells/well for U937, C6, Hek293, and GM08402 cells and added onto a 96-well plate. For background absorption, some wells remained cell free, i.e., as a blank control. Cells were incubated for 72 h at 37 °C and 5% CO2 where they were exposed to a media containing serial dilutions of the investigated compounds (n = 3). Cell viability was measured using the 3-(4,5-dimethylthiazol-2-yl)-2,5-diphenyl-tetrazolium bromide (MTT) assay. In brief, after incubating with compounds, the culture medium was removed and fresh medium with 0.2 mg/mL MTT was added to each well of the plate. After incubation (3 h, 37 °C, 5% CO2), the medium with MTT solution was removed and replaced with 200 µL DMSO and 25 µL Sorenson’s glycine buffer (glycine 0.1 M, NaCl 0.1 M, pH: 10.5 with 0.1 M NaOH). The plate was shaken for 15 min at room temperature and the optical density (OD) of the wells was determined using a multichannel spectrophotometer (Thermo Scientific Multiskan EX) at 540 nm. The quantity of the control cells was taken in calculations as 100%. The IC50 value was calculated using the program Graph Pad Prism® 3.0. […]
# [1] = tested on: B16-F10 (murine melanoma); test: in vitro; assay type: cell-based
# Text: as §1, §2, §3
smiles,measurement,setting,value
CCCCCCCCCCCCCCCC[n+]1ccc(C=Cc2cc(OC)c(OC)c(OC)c2)cc1.[Br-] [Compound 6b],Cytotoxicity IC50 C6,C6 (rat glioma),1.23 µg/mL
same,Cytotoxicity IC50 B16-F10,[1],0.63 µg/mL

# Reference: publication PMC10535741, “Styrylpyridinium Derivatives for Fluorescent Cell Imaging” (Pharmaceuticals, 2023)
